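Cells were grown in 96-well plates and exposed to each compound for 48 hours at five concentrations; endpoints were interpolated linearly between bracketing concentrations, or set to the highest concentration if not reached. At the GI50, growth is halved.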 Calls of active or inactive are those of the source. Cut-off read from the data, not from the text of the source: active = GI50 up to about 1.1 µM and inactive = higher.
Tests used:
Test in all cases: DTP human tumour cell line panel, 48 h
KM-20L2 = test system: KM-20L2
TK-10 = test system: TK-10
XF498 = test system: XF498
K562 = test system: K562
M19-MEL = test system: M19-MEL
M14 = test system: M14
DMS-114 = test system: DMS-114
SR = test system: SR
Malme-3M = test system: Malme-3M
ACHN = test system: ACHN
MCF7 = test system: MCF7
MDA-N = test system: MDA-N
NCI/ADR-RES = test system: NCI/ADR-RES
PC-3 = test system: PC-3
MDA-MB-435 = test system: MDA-MB-435
CAKI-1 = test system: CAKI-1
NCI-H226 = test system: NCI-H226
SNB-78 = test system: SNB-78
DLD-1 = test system: DLD-1
DMS-273 = test system: DMS-273

| Structure (SMILES) | GI50 (KM-20L2) | GI50 (TK-10) | GI50 (XF498) | GI50 (K562) | GI50 (M19-MEL) | GI50 (M14) | GI50 (DMS-114) | GI50 (SR) | GI50 (Malme-3M) | GI50 (ACHN) | GI50 (MCF7) | GI50 (MDA-N) | GI50 (NCI/ADR-RES) | GI50 (PC-3) | GI50 (MDA-MB-435) | GI50 (CAKI-1) | GI50 (NCI-H226) | GI50 (SNB-78) | GI50 (DLD-1) | GI50 (DMS-273) |
| --- | --- | --- | --- | --- | --- | --- | --- | --- | --- | --- | --- | --- | --- | --- | --- | --- | --- | --- | --- | --- |
| O=C(NN1C(=O)C(Cl)C1c1ccc([N+](=O)[O-])cc1)c1ccccc1O (stereo not drawn) | > 100 µM (inactive) | > 100 µM (inactive) | 93.1 µM (inactive) | > 100 µM (inactive) | > 100 µM (inactive) | > 100 µM (inactive) | > 100 µM (inactive) | > 100 µM (inactive) | 43 µM (inactive) |  |  |  |  |  |  |  |  |  |  |  |
| CC(C)N1CSC(=S)N(Cc2ccccc2)C1 |  | 3.61 µM (inactive) |  | 2.48 µM (inactive) |  |  |  | 1.64 µM (inactive) |  | > 10 µM (inactive) | 4.16 µM (inactive) | 2.42 µM (inactive) | > 10 µM (inactive) | 3.75 µM (inactive) | 3.84 µM (inactive) |  |  |  |  |  |
| S=CN1CCCCC1 |  | > 100 µM (inactive) |  | > 100 µM (inactive) |  | > 100 µM (inactive) |  | > 100 µM (inactive) | > 100 µM (inactive) | > 100 µM (inactive) | > 100 µM (inactive) | > 100 µM (inactive) | > 100 µM (inactive) | > 100 µM (inactive) | > 100 µM (inactive) | > 100 µM (inactive) | > 100 µM (inactive) |  |  |  |
| N#C/C(=C\NC(=S)Nc1ccc(S(=O)(=O)Nc2ccccn2)cc1)C(N)=O |  | > 100 µM (inactive) |  | 47.9 µM (inactive) |  | > 100 µM (inactive) |  | > 100 µM (inactive) | > 100 µM (inactive) | > 100 µM (inactive) | > 100 µM (inactive) | > 100 µM (inactive) | > 100 µM (inactive) | > 100 µM (inactive) | > 100 µM (inactive) | > 100 µM (inactive) | > 100 µM (inactive) |  |  |  |
| NN1C(=O)C(CCO)S/C1=N/N=C1/SC(CCO)C(=O)N1N (stereo not drawn) | > 100 µM (inactive) |  | 16.1 µM (inactive) | > 100 µM (inactive) | > 100 µM (inactive) | > 100 µM (inactive) | > 100 µM (inactive) | > 100 µM (inactive) | > 100 µM (inactive) | > 100 µM (inactive) |  |  |  |  |  | > 100 µM (inactive) | > 100 µM (inactive) | > 100 µM (inactive) | > 100 µM (inactive) |  |
| CCOC(=O)C1=C(C)N(c2ccc(OC)cc2)C2(O)C=CC(O)=C3C(=O)c4ccccc4C(=O)C312 (stereo not drawn) |  | 11 µM (inactive) |  | 12.6 µM (inactive) |  | 9.75 µM (inactive) |  |  | < 0.01 µM (active) | 14.3 µM (inactive) | 6.03 µM (inactive) | 8.61 µM (inactive) | 3.01 µM (inactive) | 5.53 µM (inactive) | 4.2 µM (inactive) | 8.38 µM (inactive) |  |  |  |  |
| O=C(/C=C/c1ccccc1)CC1OC(=O)c2ccccc21 (stereo not drawn) | > 100 µM (inactive) | > 100 µM (inactive) | > 100 µM (inactive) | 75.5 µM (inactive) | 45.8 µM (inactive) | > 100 µM (inactive) | 46.3 µM (inactive) |  | > 100 µM (inactive) | > 100 µM (inactive) |  |  |  |  |  |  | 22.5 µM (inactive) |  | > 100 µM (inactive) | > 100 µM (inactive) |
| CC1=C(C(=O)Nc2cccc(Cl)c2)C(c2ccccc2O)C(C(=O)Nc2cccc(Cl)c2)=C(C)N1 | 18.4 µM (inactive) | 18.9 µM (inactive) |  | 22.4 µM (inactive) | 19.4 µM (inactive) | 17.4 µM (inactive) | 22.4 µM (inactive) |  | 19.4 µM (inactive) | 23.7 µM (inactive) |  |  |  |  |  | 22 µM (inactive) | 17.7 µM (inactive) | 24.5 µM (inactive) | 18.4 µM (inactive) |  |
| CCOC(=O)c1cn(CC)c(=O)n2c1nc1ccccc12 |  |  |  | 42.1 µM (inactive) |  | > 100 µM (inactive) |  | 28.4 µM (inactive) |  | 55 µM (inactive) | 54.6 µM (inactive) | > 100 µM (inactive) | 62.5 µM (inactive) | > 100 µM (inactive) | > 100 µM (inactive) | 57.9 µM (inactive) | 44.3 µM (inactive) |  |  |  |
| CCOc1ccc(NC(=O)/C(CC(=O)c2c[n+]([O-])c3ccccc3[n+]2[O-])=N\OCCCc2ccccc2)cc1 | > 100 µM (inactive) | > 100 µM (inactive) |  | 62.5 µM (inactive) | > 100 µM (inactive) | > 100 µM (inactive) | > 100 µM (inactive) | > 100 µM (inactive) | > 100 µM (inactive) | > 100 µM (inactive) |  |  |  |  |  | > 100 µM (inactive) | 44.9 µM (inactive) | > 100 µM (inactive) | > 100 µM (inactive) | > 100 µM (inactive) |
| CC1(C)C(N2CCOCC2)CS1(=O)=O (stereo not drawn) |  | > 10 µM (inactive) |  | > 10 µM (inactive) |  | > 10 µM (inactive) |  |  | > 10 µM (inactive) | > 10 µM (inactive) | > 10 µM (inactive) | > 10 µM (inactive) | > 10 µM (inactive) | > 10 µM (inactive) | > 10 µM (inactive) | > 10 µM (inactive) | > 10 µM (inactive) |  |  |  |
| Nc1nc2cc(COc3ccc(C(=O)O)cc3)ccc2nc1-c1ccccc1 |  | > 10 µM (inactive) |  | > 10 µM (inactive) |  | > 10 µM (inactive) |  | > 10 µM (inactive) |  | > 10 µM (inactive) | > 10 µM (inactive) | > 10 µM (inactive) |  | > 10 µM (inactive) | > 10 µM (inactive) | > 10 µM (inactive) | > 10 µM (inactive) |  |  |  |
| CC(=O)NNc1nc(C)c(C(=O)NNC(=O)C(=O)Nc2ccc([N+](=O)[O-])cc2[N+](=O)[O-])s1 | > 100 µM (inactive) | > 100 µM (inactive) | > 100 µM (inactive) | 39.4 µM (inactive) |  | > 100 µM (inactive) | 30.1 µM (inactive) | 81.1 µM (inactive) |  | > 100 µM (inactive) |  |  |  |  |  | 57.1 µM (inactive) | > 100 µM (inactive) | > 100 µM (inactive) | > 100 µM (inactive) | > 100 µM (inactive) |
| CCOC(=O)C1=C(C)N(NC(N)=O)C2(O)CCCC(=O)C12C (stereo not drawn) | > 100 µM (inactive) | > 100 µM (inactive) | > 100 µM (inactive) |  |  | > 100 µM (inactive) | > 100 µM (inactive) | > 10 µM (inactive) | > 100 µM (inactive) | > 100 µM (inactive) |  |  |  |  |  | > 100 µM (inactive) | > 100 µM (inactive) | > 100 µM (inactive) | 94.4 µM (inactive) | > 100 µM (inactive) |
| CC(=O)NC(c1nc2cc(C)c(C)cc2[nH]1)c1nc2cc(C)c(C)cc2[nH]1 |  | 28.1 µM (inactive) |  | 1.02 µM (active) |  | 25.4 µM (inactive) |  |  | 29 µM (inactive) | 29.2 µM (inactive) | 23.9 µM (inactive) | 19.1 µM (inactive) | 28.9 µM (inactive) | 24.8 µM (inactive) | 17.7 µM (inactive) | 20.3 µM (inactive) |  |  |  |  |
| CC1(c2sccc2Cl)CC(c2sccc2Cl)=C(C#N)C(=C(C#N)C#N)N1 (stereo not drawn) |  | 17.2 µM (inactive) |  |  |  | 18.6 µM (inactive) |  |  | 17.6 µM (inactive) | 18.5 µM (inactive) | 22.8 µM (inactive) | 17.3 µM (inactive) | 22.8 µM (inactive) | 18.7 µM (inactive) | 22 µM (inactive) | 20.2 µM (inactive) |  |  |  |  |
| O=c1cccccc1NCCCCCCCCCNc1cccccc1=O | 19.6 µM (inactive) |  | 7.36 µM (inactive) | 3.35 µM (inactive) | 15.2 µM (inactive) | 10.9 µM (inactive) | 1.35 µM (inactive) | 8.43 µM (inactive) | 7.52 µM (inactive) | 4.28 µM (inactive) |  |  |  |  |  | 13.3 µM (inactive) | 15.7 µM (inactive) | 17.1 µM (inactive) | 10.8 µM (inactive) | 12.5 µM (inactive) |
| COc1cccc2[s+]snc12 | > 100 µM (inactive) | > 100 µM (inactive) | 18.8 µM (inactive) | 25.7 µM (inactive) | 22.8 µM (inactive) | > 100 µM (inactive) |  | 22.2 µM (inactive) | > 100 µM (inactive) | 47.8 µM (inactive) |  |  |  |  |  | 66.1 µM (inactive) | > 100 µM (inactive) | 38.7 µM (inactive) | 35.6 µM (inactive) | 53.2 µM (inactive) |
| CSc1nc(SC)c2cnn(CC3CO3)c2n1 (stereo not drawn) | 18.2 µM (inactive) |  | 22.4 µM (inactive) | 26.5 µM (inactive) | 13.6 µM (inactive) |  | 17.4 µM (inactive) |  | 23.5 µM (inactive) |  | 9.44 µM (inactive) |  | 13.8 µM (inactive) |  |  |  | 17.9 µM (inactive) |  | 22.3 µM (inactive) | 22.8 µM (inactive) |
| Cn1c(-c2cccs2)cc(-c2cccs2)c1-c1ccco1 |  | 41.7 µM (inactive) |  | 10.2 µM (inactive) |  | 26.4 µM (inactive) |  | 14.8 µM (inactive) |  | > 93.3 µM (inactive) | 0.473 µM (active) | 39.5 µM (inactive) | 40.7 µM (inactive) | 72.6 µM (inactive) | 7.16 µM (inactive) | 11.4 µM (inactive) | > 100 µM (inactive) |  |  |  |
| Nc1nc(N)c(N=O)c(OCC2CCCCC2)n1 |  | 6.64 µM (inactive) |  | 21.9 µM (inactive) |  | 8.47 µM (inactive) |  | 4.76 µM (inactive) |  | 1.06 µM (active) | 4.3 µM (inactive) | 11 µM (inactive) | 18.9 µM (inactive) | 6.41 µM (inactive) | 14.3 µM (inactive) | 7.55 µM (inactive) | 9.4 µM (inactive) |  |  |  |
| Cc1[nH]n(C2=NCCN2)c(=O)c1Cc1ccccc1 |  | > 100 µM (inactive) |  | > 100 µM (inactive) |  | > 100 µM (inactive) |  | > 100 µM (inactive) | > 100 µM (inactive) | > 100 µM (inactive) | > 100 µM (inactive) | > 100 µM (inactive) | > 100 µM (inactive) | > 100 µM (inactive) | > 100 µM (inactive) | > 100 µM (inactive) | > 100 µM (inactive) |  |  |  |

— ChEMBL document CHEMBL1201862, “PubChem BioAssay data set” (2004)
